# Data reported in paper PMC6337497 (International Journal of Molecular Sciences, 2018).
# Assays:
# PC3 cells [1] = assay: MTT cell viability assay, PC3; format: cell-based, Human; settings: Homo sapiens, PC-3, 48 h, 48 h treatment, MTT
# Description: (§1) Human prostate cancer PC3 cells (CRL 1435, ATCC, Manassas, VA, USA) were grown in Ham’s F12 nutrient medium, human prostate cancer DU145 cells (HTB-81, ATCC, Manassas, VA, USA) in RPMI 1640 medium and human colorectal carcinoma HCT116 cells (CCL-247, ATCC, Manassas, VA, USA) in IMDM medium. All media (Biowest, Nuaillé, France) were supplemented with 10% Foetal Bovine Serum (Gibco-Thermo Fisher Scientific, Waltham, MA, USA), L-glutamine, penicillin, and streptomycin (Euroclone, Milan, Italy), and grown at 37 °C in a humidified 5% CO2 atmosphere.
# (§2) DMSO was used as control.
# (§3) The inhibition of cell proliferation was measured by colorimetric MTT assay and the concentration at which cellular growth is inhibited by 50% (GI50) was determined. Briefly, cells were seeded into 96-well plates at a density of 2000 cells/well. The following day, cells were treated with the indicated compounds and analyzed for cell viability after 48 h. 5 mg/mL thiazolyl blue tetrazolium bromide (Sigma-Aldrich, St. Louis, MO, USA) was added to each well at a final concentration of 0.5 mg/mL and the plates were incubated at 37 °C for 2 h. Medium containing unconverted MTT was removed and 100 µL MTT solvent (4 mM HCl, 0.1% NP-40 in isopropyl alcohol) was added to each well. The plate was gently rotated on an orbital shaker in the dark for 15 min, before the measurements of absorbance at 570 nm. The viability of untreated cells was arbitrarily set at 100%.
# DU145 cells [2] = assay: MTT cell viability assay, DU145; format: cell-based, Human; settings: Homo sapiens, DU-145; 48 h treatment, MTT
# Description: as §1, §2, §3
# PC3 cells [3] = assay: Cell cycle analysis (propidium iodide), PC3; format: cell-based, Human; settings: PC3, 48 h at GI50 dose
# Description: (§4) Cells were harvested after 48 h drug treatments and DNA distribution analysis of cells stained with propidium iodide solution (propidium iodide 25 µg/mL, Na-Citrate 3.4 mM, NaCl 9.65 mM, NP-40 0.03%) was performed by an Epics cytofluorimeter (Beckman Coulter Srl, Milan, Italy).
# DU145 cells [4] = assay: Cell cycle analysis (propidium iodide), DU145; format: cell-based, Human; settings: DU145, 48 h at GI50 dose
# Description: as §4
# PC3 cells [5] = assay: RT-qPCR gene transcription, PC3; format: cell-based, Human; settings: PC3, 48 h at GI50 dose
# Description: Data are presented as relative transcript levels, normalized with RPL21 housekeeping gene, with DMSO levels arbitrarily set at 1.
# RNA was extracted from cells using RNeasy kit (Qiagen, Venlo, The Netherlands) and reversed transcribed with a Moloney murine leukemia virus reverse transcriptase (Promega, Madison, WI, USA). Quantitative real-time PCRs were performed using SsoAdvanced Universal SYBR Green Supermix (Bio-Rad, Hercules, CA, USA) on a Bio-Rad CFX Connect™ real-time PCR detection system. Primer sequences are available upon request. The housekeeping gene Rpl21 was used as a loading control. The relative fold change enrichments of real-time PCR samples were calculated with the formula 2^−(ΔΔCt), where −(ΔΔCt) = −[(Ct target − Ct Rpl21)treated − (Ct target − Ct Rpl21)DMSO].
# PC3 cells [6] = assay: Western blot of total cellular lysates, PC3; format: cell-based, Human; settings: PC3, 48 h at GI50 dose
# Description: (§8) Actin was used as loading control. Whole-cell protein extracts were prepared by resuspending cells into 1X SDS sample buffer (25 mM Tris-HCl pH 6.8, 1.5 mM EDTA, 20% glycerol, 2% SDS, 5% β-mercaptoethanol, 0.0025% Bromophenol blue). Equivalent amounts of cellular extracts were resolved by SDS-PAGE, electrotransferred to PVDF membrane (GE Healthcare Italia, Milan, Italy) and immunoblotted with the following primary antibodies: anti-phospo-H2AX (sc-101696), anti-p53 (DO1) (sc-126), anti-actin ([MUT]) (sc-1616) and anti-PARP (sc-8007) antibody from Santa Cruz Biotecnology, Inc, Dallas, TX, USA.; phospho-specific AKT antibody S473 (#9018) and T308 (#9275), Akt antibody (#9272 and #2967), phospho-specific ERK1/2 antibody T202/Y204 (#4370), ERK1/2 antibody (#4669), phospho-specific p38 MAPK antibody T180/Y182 (#9211), and p38 antibody (#9212) were purchased from Cell Signaling Technologies, Danvers, MA, USA. Membranes were blotted and scanned with Bio-Rad ChemiDocTM Touch Imaging System (Bio-Rad, Hercules, CA, USA), using chemiluminescent detection reagents from Cyanagen, Bologna, Italy (Westar ηC and Supernova HRP substrates for Western blotting).
# DU145 cells [7] = assay: Western blot of total cellular lysates, DU145; format: cell-based, Human; settings: DU145, 48 h at GI50 dose
# Description: as §8
# PC3 cells [8] = assay: Anchorage-dependent colony formation assay, PC3; format: cell-based, Human
# Description: (§5) For anchorage-dependent colony formation assay, 1000 PC3 or 500 DU145 cells were plated in 6-well plates. […] After 7–10 days, the plates were washed, fixed and stained with 0.5% crystal violet solution in 20% Methanol. […] Colony numbers were normalized as a percentage of colonies formed following DMSO treatment.
# DU145 cells [9] = assay: Anchorage-dependent colony formation assay, DU145; format: cell-based, Human; settings: DU145, 10 days, different doses
# Description: as §5
# PC3 cells [10] = assay: Anchorage-independent colony formation assay, PC3; format: cell-based, Human; settings: PC3, 5 µM
# Description: (§6) For anchorage-independent colony formation assay, 0.6% low melt agarose gel with 10% FBS in appropriate complete cell growth medium was prepared and added to the wells of a twelve-well culture dish as a base agar. […] PC3 and DU145 cells were allowed to grow at 37 °C for three weeks (PC3) or five weeks (DU145). The effect of the drugs on anchorage-independent growth was determined by colony growth. Colonies were stained with 0.07% crystal violet and formed colonies were imaged. The numbers of colonies with radius ≥ 7 pixels were counted with automated colony counter (OpenCFU 3.9.0) and average number of colonies was plotted against drug concentrations. Colony numbers were normalized as a percentage of colonies formed following DMSO treatment.
# DU145 cells [11] = assay: Anchorage-independent colony formation assay, DU145; format: cell-based, Human; settings: DU145, 10 µM
# Description: as §6
# DU145 cells [12] = assay: K3F21/docetaxel co-administration, MTT and CompuSyn, DU145; format: cell-based, Human; settings: 48 h
# Description: as §3
# (§7) The ability of K3F21 and docetaxel to act synergistically with regard to growth inhibition was determined using CompuSyn software (ComboSyn, Inc., freely available at http://www.combosyn.com). Combination index (CI) and drug reduction index (DRI) were calculated for each concentration of drugs mixture, as indicated in the text. CI <1, =1 or >1 indicates synergism, additive effect, or antagonism, respectively. DRI >1 or <1 indicates favorable or not favorable dose-reduction.
# PC3 cells [13] = assay: K3F21/docetaxel co-administration, MTT and CompuSyn, PC3; format: cell-based, Human; settings: PC3, K3F21/DTX combinations
# Description: as §3, §7
# [14] = Lipophilicity (data not shown); format: physicochemical
structure (smiles),measurement,setting,value
COc1cc(/C=C/C(=O)C(CCCN2C(=O)c3ccccc3C2=O)C(=O)/C=C/c2ccc(O)c(OC)c2)ccc1O [K3F21],GI50,PC3 cells [1],7.9 µM
same,GI50,DU145 cells [2],8.6 µM
same,effect on cell cycle distribution (in words),PC3 cells [3],doubled the percentage of G2/M cells
same,effect on cell cycle distribution (in words),DU145 cells [4],both arrested the G2/M progression and induced cell death
same,Bcl-2 / Bcl-xl transcription,PC3 cells [5],"Bcl-2, but not Bcl-xl, was weakly repressed"
same,Noxa transcription,PC3 cells [5],induced
same,Puma transcription,PC3 cells [5],increased exclusively following K3F21 administration
same,transcription of CDK inhibitors p21 and p27,PC3 cells [5],increased
same,"transcription of Cdc2, CyclinB1, CyclinB2, and CyclinD1 cell cycle genes",PC3 cells [5]; compared to curcumin and control cells,"general decrease, though not always significant"
same,ERK1/2 phosphorylation,PC3 cells [6],increased
same,phospho-p38 expression,PC3 cells [6],inhibited
same,phosphorylation of AKT in Ser473 and Thr308,PC3 cells [6],inhibited
same,γH2AX expression (marker of DNA damage),PC3 cells [6],triggered DNA damage
same,ERK1/2 phosphorylation,DU145 cells [7],increased
same,PARP-1 cleavage (apoptotic cell death),DU145 cells [7],activation of apoptotic cell death
same,phospho-p38 expression,DU145 cells [7],no changes were observed
same,γH2AX expression (marker of DNA damage),DU145 cells [7],triggered DNA damage
same,anchorage-dependent colony formation,"PC3 cells [8]; PC3, 5 µM",quite completely abolished
same,anchorage-dependent colony growth,"PC3 cells [8]; PC3, 7 days, different doses",clearly inhibited cell growth when administered at lower concentrations than curcumin
same,anchorage-dependent colony growth,DU145 cells [9],clearly inhibited cell growth when administered at lower concentrations than curcumin
same,"decrease in colony formation, anchorage-independent",PC3 cells [10],up to 95%
same,"decrease in colony formation, anchorage-independent",DU145 cells [11],up to 95%
same,cell viability of co-administration compared to independent treatments,"DU145 cells [12]; DU145, K3F21 and DTX 20nM",significant decrease in cell viability
same,Combination Index (CI),"DU145 cells [12]; DU145, K3F21 co-administered with DTX 20nM",0.8
same,cell growth of co-administration compared to single administration,PC3 cells [13],none of the evaluated K3F21/DTX combinations affected cell growth
same,lipophilicity,[14],high
